Results on two compounds are retold here after ChEMBL document CHEMBL1127930, “Design, synthesis and biological properties of structurally non-related endotoxin inhibitors” (Bioorg Med Chem Lett, 1994).

This test concerns Escherichia coli. Nature of the test: Compound was evaluated to inhibit the LAL response produced by two endotoxin units of Escherichia coli LPS. The test is classed as functional, organism-based.

Each structure is given as a SMILES string.

`CCCCCCCCCCCCCC[N+](C)(C)C[C@@H]1OCO[C@H]1C[N+](C)(C)CCCCCCCCCCCCCC`: the Concentration amounted to 75 µg/mL.

For `CCCCCCCCCCCCCC[N+](C)(C)C[C@@H]1OC(C)(C)O[C@H]1C[N+](C)(C)CCCCCCCCCCCCCC`, the Concentration amounted to 75 µg/mL.
